“Also recorded” adds a separate entry of the source.
Legend:
[1] = system: prostate tumor induced with PC-3 cells; assay: in vivo effect in mice bearing prostate tumor induced with PC-3 cells; set-up: species or system male SCID mice; conditions: SCID mice with PC-3 tumor; 25-OH-D3 10 μg or 25-OH-D3-3-BE 13.2 μg (molar equivalent) i.p. in alternate days for two weeks
Method: Sesame oil solutions (200 μl) of either 25-OH-D3 (10 μg) or 25-OH-D3-3-BE (13.2 μg, molar equivalent of 25-OH-D3) or vehicle were administered i.p. in alternate days for two weeks. […] At the end, mice were anesthetized, tumors were removed, and blood was collected. Tumors were embedded in paraffin and sections were made.

PC-3 cells = assay: DNA-fragmentation analysis; type: cell-based, human; conditions: 250 nM, 10 hours
Method: (a) DNA-fragmentation analysis: PC-3 cells (2×10^6) were treated with 250 nM of 1,25(OH)2D3, 25-OH-D3 or 25-OH-D3-3-BE for 10 hours. The cells were harvested and lysed in 0.5 ml lysis buffer (20 mM Tris-HCl, 10 mM EDTA, 0.5% Triton X-100, pH 8.0), and DNA was extracted using phenol-chloroform procedure. The DNA was resuspended in 0.1 ml of 20 mM Tris-HCl, pH 8 and treated with Rnase, followed by electrophoresis on 1.2% agarose gel in TAE. The DNA was visualized under UV light after ethidinium bromide staining.

VDR = VDR (Homo sapiens, UniProt P11473); conditions: compared with 1,25(OH)2D3; cited from earlier work
VDR, sequence (P11473 whole entry, species assumed): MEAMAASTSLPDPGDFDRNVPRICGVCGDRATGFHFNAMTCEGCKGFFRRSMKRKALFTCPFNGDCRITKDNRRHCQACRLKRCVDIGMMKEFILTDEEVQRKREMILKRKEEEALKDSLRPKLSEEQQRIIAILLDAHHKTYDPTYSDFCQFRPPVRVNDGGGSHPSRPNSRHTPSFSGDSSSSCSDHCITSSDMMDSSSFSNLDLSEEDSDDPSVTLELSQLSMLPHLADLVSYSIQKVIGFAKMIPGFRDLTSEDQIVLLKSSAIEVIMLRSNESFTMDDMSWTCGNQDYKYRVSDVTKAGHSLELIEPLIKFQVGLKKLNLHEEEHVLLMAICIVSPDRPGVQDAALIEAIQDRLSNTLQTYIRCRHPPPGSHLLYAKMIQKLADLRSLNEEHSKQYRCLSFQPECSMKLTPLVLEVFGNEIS

[2] = in vivo toxicity study in CD-1 mice; conditions: CD-1 mice; for Body Weight On Day 0: beginning of the experiment
Source text: Investigators completed an in vivo study to determine the toxicity of 25-OH-D3-3-BE at various doses in CD-1 mice. The animals (average weight ˜30 gms) were maintained with normal chow and water ad libitum. […] At the end of the experiment the animals were lightly anesthetized and blood collected after decapitation for serum calcium-analysis. […] Frequency of administration, body weights at the beginning and at the end of the experiment and serum calcium values are given in the accompanying Table 1.

[3] = system: primary cultures of normal human keratinocytes; assay: microscopic examination of the cells, keratinocytes; type: cell-based; conditions: treated for sixteen (16) hours
[4] = system: PC3 cells (prostate cancer cells); assay: 3H-thymidine incorporation assay, PC3; type: cell-based, human; conditions: for antiproliferative effect (3H-thymidine incorporation): PC3 cells, compared to 1,25(OH)2D3
Source text: (§1) It is well known that secretory epithelial cells are the main sites for the development of cancers of the breast, prostate and various other organs.
(§2) In a study, investigators compared the growth-inhibitory effects of 25-OH-D3-3-BE and 1,25(OH)2D3 in several VDR-positive epithelial cells, e.g. keratinocytes (primary skin cells), MCF-7 cells (breast cancer cells), hormone-sensitive LNCaP and hormone-refractory PC3 cells (prostate cancer cells), and PZ-HPV-7 (papillovirus immortalized normal prostate cells) by using ^3H-thymidine incorporation assays (FIGS. 14-19).
Since 25-OH-D3-3-BE contains an ester bond, its hydrolysis by esterases in growing cells would produce equimolar amounts of bromoacetic acid (BAA) and 25-OH-D3 (see, FIG. 21).
Furthermore, fetal calf serum (FCS) contains many proteins, including vitamin D-binding protein, which potentially could absorb 25-OH-D3-3-BE before it reacts with VDR. Typically, the assays described herein were carried out in a media containing 10% FCS (after serum-depriving the cells for 15 hours).

[5] = system: MCF-7 cells (breast cancer cells); assay: 3H-thymidine incorporation assay, MCF-7; type: cell-based; conditions: compared to 1,25(OH)2D3
Source text: as §1
It is well-established that the biological properties of 1,25(OH)2D3 and its analogs are mediated by their interaction with VDR.
as §2

[6] = system: hormone-refractory PC3 cells; assay: microscopic examination of the cells, PC3; type: cell-based, human; conditions: PC3, treated for sixteen (16) hours
[7] = system: immortalized normal prostate cells (PZ-HPV-7); assay: microscopic examination of the cells, PZ-HPV-7; type: cell-based; conditions: PZ-HPV-7, treated for sixteen (16) hours
[8] = system: breast cancer cells (MCF-7); assay: microscopic examination of the cells, MCF-7; type: cell-based; conditions: MCF-7, treated for sixteen (16) hours
[9] = system: PZ-HPV-7 (papillovirus immortalized normal prostate cells); assay: 3H-thymidine incorporation assay, PZ-HPV-7; type: cell-based; conditions: PZ-HPV-7 cells; for effect on proliferation (3H-thymidine incorporation): 10^−6M, 16 hours; for antiproliferative effect (3H-thymidine incorporation): compared to 1,25(OH)2D3
Method: as §1
(§3) The inventors further studied the effect of 1,25(OH)2D3-3-BE on LNCAP cells (most closely resembling human hormone-sensitive prostate cancer) and PZ-HPV-7 cells (immortalized normal prostate cells). The cells were treated with ethanol or 10^−6M of either 1,25(OH)2D3 or 1,25(OH)2D3-3-BE for 16 hours and the effect on proliferation was determined by ^3H-thymidine incorporation assays as described earlier. The viable cell count was determined by Methylene blue assay. The Methylene blue assay is a simple colorimetric method that is widely used to determine the viable cell count.
as §2

[10] = system: hormone-sensitive LNCaP cells; assay: microscopic examination of the cells, LNCaP; type: cell-based, human; conditions: treated for sixteen (16) hours
[11] = system: keratinocytes (primary cells); assay: 3H-thymidine incorporation assay, keratinocytes; type: cell-based, human; conditions: compared to 1,25(OH)2D3
Source text: as §1, §2

[12] = system: LNCaP cells (prostate cancer cells); assay: 3H-thymidine incorporation assay, LNCaP; type: cell-based, human; conditions: for effect on proliferation (3H-thymidine incorporation): 10^−6M, 16 hours; for dose-dependency of antiproliferative effect: 10^−8-10^−6M; for antiproliferative effect (3H-thymidine incorporation): compared to 1,25(OH)2D3
Method: as §3
The inventors studied dose-dependency of antiproliferation and cytotoxicity by 1,25(OH)2D3 or 1,25(OH)2D3-3-BE in LNCaP cells. The cells were treated with 10^−8-10^−6M of either 1,25(OH)2D3 or 1,25(OH)2D3-3-BE or ethanol (used as a control). The effect on proliferation and viable cell count were determined by using ^3H-thymidine incorporation and Methylene blue assay respectively. […]
as §2

vitamin D receptor, VDR = vitamin D receptor, VDR (Homo sapiens, UniProt P11473); conditions: cited from earlier work
vitamin D receptor, VDR, sequence (P11473 whole entry): as the sequence (P11473 whole entry, species assumed) above

[13] = system: intestinal cancer Caco-2 cells; conditions: compared with 1,25(OH)2D3; cited from earlier work
PZ-HPV-7 cells = assay: Methylene blue assay, viable cell count, PZ-HPV-7; type: cell-based; conditions: 10^−6M, 16 hours
VDR-regulated genes = conditions: higher level sustained for a longer duration at a lower concentration of the analog; cited from earlier work
LNCaP cells = assay: Methylene blue assay, viable cell count, LNCaP; conditions: 10^−6M, 16 hours
Method: as §3
The inventors studied dose-dependency of antiproliferation and cytotoxicity by 1,25(OH)2D3 or 1,25(OH)2D3-3-BE in LNCaP cells. The cells were treated with 10^−8-10^−6M of either 1,25(OH)2D3 or 1,25(OH)2D3-3-BE or ethanol (used as a control). The effect on proliferation and viable cell count were determined by using ^3H-thymidine incorporation and Methylene blue assay respectively.

SMILES | DNA fragmentation (apoptosis) (PC-3 cells) | microscopic appearance of the cells [3] | antiproliferative effect (3H-thymidine incorporation) [4] | antiproliferative effect (3H-thymidine incorporation) [5] | microscopic appearance of the cells [6] | microscopic appearance of the cells [7] | microscopic appearance of the cells [8] | effect on proliferation (3H-thymidine incorporation) [9] | antiproliferative effect (3H-thymidine incorporation) [9] | microscopic appearance of the cells [10] | antiproliferative effect (3H-thymidine incorporation) [11] | effect on proliferation (3H-thymidine incorporation) [12] | dose-dependency of antiproliferative effect [12] | antiproliferative effect (3H-thymidine incorporation) [12] | other results
C=C1CC[C@H](O)C/C1=C/C=C1\CCC[C@]2(C)[C@@H]([C@H](C)CCCC(C)(C)O)CC[C@@H]12 [25-OH-D3, 25-hydroxyvitamin D3, reference compound] | no such DNA cleavage was observed |  |  |  |  |  |  |  |  |  |  |  |  |  | condition of the mice at the end of treatment [1]: very sick, and most of them died; VDR-binding ability (VDR): significantly low VDR-binding ability; Body Weight on Day 12 ([2]; 3.3 μg/kg intraperitoneally): 33.5 ± 1 grams; Body Weight On Day 0 ([2]; 3.3 μg/kg intraperitoneally): 31.5 ± 1.56 grams; Body Weight on Day 12 ([2]; 33 μg/kg intraperitoneally): 30.66 ± 2 grams; Body Weight On Day 0 ([2]; 33 μg/kg intraperitoneally): 28.9 ± 2 grams
C=C1/C(=C\C=C2/CCC[C@]3(C)[C@@H]([C@H](C)CCCC(C)(C)O)CC[C@@H]23)C[C@@H](O)C[C@@H]1O [1,25(OH)2D3, 1-α,25-dihydroxyvitamin D3, reference compound] | no such DNA cleavage was observed | appeared normal | dose-dependant antiproliferation | dose-dependant antiproliferation | appeared normal | appeared normal | appeared normal | only inhibition of proliferation | dose-dependant antiproliferation | appeared normal | dose-dependant antiproliferation | only inhibition of proliferation | most pronounced at 10^−6M | dose-dependant antiproliferation | 
C=C1/C(=C\C=C2/CCC[C@@]3(C)C2CC[C@@H]3C(C)CCCC(C)(C)O)C[C@@H](OC(=O)CBr)CC1O (stereo partly drawn) [1,25(OH)2D3-3-BE, 1α,25-dihydroxy-vitamin D3-3β-(2)-bromoacetate] |  | appeared normal | stronger antiproliferative effect; also recorded: dose-dependant antiproliferation | stronger antiproliferative effect; also recorded: dose-dependant antiproliferation | appeared to have undergone apoptosis | appeared normal | appeared normal | almost completely inhibited | stronger antiproliferative effect; also recorded: dose-dependant antiproliferation | appeared to have undergone apoptosis | stronger antiproliferative effect; also recorded: dose-dependant antiproliferation | almost completely inhibited | most pronounced at 10^−6M | stronger antiproliferative effect; also recorded: dose-dependant antiproliferation | speed of cross-linking to VDR (vitamin D receptor, VDR): extremely rapid; calcemic index [13]: lower calcemic index than 1,25(OH)2D3; decrease of proliferation compared with 1,25(OH)2D3 ([12]; dose levels of 10^−6 and 10^−7M): much stronger in decreasing the proliferation than 1,25(OH)2D3; viable cell count diminished by (PZ-HPV-7 cells): approximately 15%; transcription of VDR-regulated genes (VDR-regulated genes): increased transcription; viable cell count diminished by (LNCaP cells): approximately 60%
O=C(O)CBr [bromoacetic acid, reference compound] |  |  |  | no effect |  |  |  |  |  |  |  |  |  | no effect | growth-inhibitory effect (3H-thymidine incorporation) ([4]; PC-3 cells, 10^−6M): not antiproliferative
O=C(CBr)OCc1ccccc1 [benzylbomacetate, benzylbormoacetate, reference compound] |  |  |  | no effect |  |  |  |  |  |  |  |  |  | no effect | 
